Legend:
Format in all cases: in vivo
Erysiphe cichoracaerum = test: Cucumber Powdery Mildew (ERYSCI) whole-plant disease control test; details: Erysiphe, foliar; 200 ppm applied to foliage of cucumber; inoculated one day after treatment; read-out: ERYSCI disease control
Leptosphaeria nodorum = test: Glume Blotch of Wheat (LEPTNO) whole-plant disease control test; details: Parastagonospora nodorum, foliar; 200 ppm applied to foliage of wheat; inoculated one day after treatment; read-out: LEPTNO disease control
[1] = tested on: Magnaporthe grisea=Pyricularia oryzae; test: whole plant or invertebrate; details: Pyricularia oryzae, foliar, read-out: PYRIOR disease control, 200 ppm applied to foliage of rice; inoculated one day after treatment
[2] = tested on: Mycosphaerella graminicola=Septoria tritici; test: Speckled Leaf Blotch of Wheat (SEPTTR) whole-plant disease control test; details: Mycosphaerella, foliar, 75 ppm applied to foliage of wheat; read-out: SEPTTR disease control
Colletotricum lagenarium = test: Cucumber Anthracnose (COLLLA) whole-plant disease control test; details: Cucumis sativus, foliar; 200 ppm applied to foliage of cucumber; inoculated one day after treatment; read-out: COLLLA disease control
[3] = tested on: Puccinia recondita tritici; test: Leaf Rust of Wheat (PUCCRT) whole-plant disease control test; details: Puccinia recondita, foliar, 200 ppm applied to foliage of wheat; inoculated one day after treatment; read-out: PUCCRT disease control
Phytophthora infestans = test: whole plant or invertebrate; details: Phytophthora infestans, in Solanum lycopersicum, foliar, read-out: PHYTIN disease control, 200 ppm applied to foliage of tomato; inoculated one day after treatment

| SMILES | pest or weed control at 200 ppm (Erysiphe cichoracaerum) [%] | pest or weed control at 200 ppm (Leptosphaeria nodorum) [%] | pest or weed control at 200 ppm [1] [%] | pest or weed control at 75 ppm [2] [%] | pest or weed control at 200 ppm (Colletotricum lagenarium) [%] | pest or weed control at 200 ppm [3] [%] | pest or weed control at 200 ppm (Phytophthora infestans) [%] |
| --- | --- | --- | --- | --- | --- | --- | --- |
| FC(F)(F)c1ccnc(Oc2ccc(CCNc3ncnc4scc(Cl)c34)cc2)c1 [Compound 12] | 80 to 100 | 80 to 100 | 80 to 100 | 50 to 79 | 50 to 79 | 80 to 100 | 50 to 79 |
| N#Cc1ccnc(Oc2ccc(CCNc3ncnc4scc(Cl)c34)cc2)c1 [Compound 13] | 80 to 100 | 80 to 100 | 80 to 100 | 50 to 79 | 50 to 79 | 80 to 100 | 50 to 79 |
| O=C(Oc1ccc(CCNc2ncnc3scc(Cl)c23)cc1)c1ccccn1 [Compound 14] | 0 to 49 | 50 to 79 | 80 to 100 | 0 to 49 | 0 to 49 | 80 to 100 | 0 to 49 |
| O=C(Oc1ccc(CCNc2ncnc3scc(Cl)c23)cc1)c1ccc(Cl)nc1 [Compound 15] | 0 to 49 | 50 to 79 | 80 to 100 | 0 to 49 | 0 to 49 | 80 to 100 | 0 to 49 |
| Clc1csc2ncnc(NCCc3ccc(Oc4ncc(Br)s4)cc3)c12 [Compound 16] | 50 to 79 | 0 to 49 | 80 to 100 | 80 to 100 | 0 to 49 | 80 to 100 | 80 to 100 |
| Clc1csc2ncnc(NCCc3ccc(Oc4ncccn4)cc3)c12 [Compound 17] | 50 to 79 | 50 to 79 | 80 to 100 | 50 to 79 | 0 to 49 | 80 to 100 | 80 to 100 |
| Clc1csc2ncnc(NCCc3ccc(Oc4ccccn4)cc3)c12 [Compound 18] | 80 to 100 | 0 to 49 | 80 to 100 | 50 to 79 | 0 to 49 | 80 to 100 | 80 to 100 |
| [O-][n+]1ccccc1Oc1ccc(CCNc2ncnc3scc(Cl)c23)cc1 [Compound 19] | 50 to 79 | 0 to 49 | 80 to 100 | 50 to 79 | 0 to 49 | 80 to 100 | 80 to 100 |
| NC(=O)c1ccc(Oc2ccc(CCNc3ncnc4scc(Cl)c34)cc2)nc1 [Compound 21] | 0 to 49 | 0 to 49 | 0 to 49 | 0 to 49 | 0 to 49 | 80 to 100 | 0 to 49 |
| N#Cc1cc[n+]([O-])c(Oc2ccc(CCNc3ncnc4scc(Cl)c34)cc2)c1 [Compound 22] | 50 to 79 | 50 to 79 | 80 to 100 | 0 to 49 | 50 to 79 | 80 to 100 | 50 to 79 |
| CCOC(=O)c1ccc(Oc2ccc(CCNc3ncnc4scc(Cl)c34)cc2)nc1 [Compound 23] | 0 to 49 | 0 to 49 | 50 to 79 | 0 to 49 | 0 to 49 | 80 to 100 | 50 to 79 |
| O=Cc1ccc(Oc2ccc(CCNc3ncnc4scc(Cl)c34)cc2)nc1 [Compound 24] | 0 to 49 | 0 to 49 | 80 to 100 | 50 to 79 | 50 to 79 | 80 to 100 | 50 to 79 |
| COc1nc(OC)nc(Oc2ccc(CCNc3ncnc4scc(Cl)c34)cc2)n1 [Compound 26] | 0 to 49 | 0 to 49 | 50 to 79 | 0 to 49 | 0 to 49 | 80 to 100 | 0 to 49 |
